Experimental findings from patent US20240150293A1, “SPIROCYCLOHEXANE DERIVATIVES, PHARMACEUTICAL COMPOSITIONS CONTAINING THEM AND THEIR USES AS ANTI-APOPTOTIC INHIBITORS” (LES LABORATOIRES SERVIER, priority 2021, published 2024) are described below.

Read-outs that look alike come from different tables or passages of the source.

Assay [1] addresses Cy5-labelled Mcl1 (amino acids 171-321) C286S protein (UniProtKB Q07820) (Homo sapiens (Human), UniProt Q07820, C286S). Put plainly: Inhibition of Mcl-1 by the fluorescence quenching assay (Example A, Method B). The class given is binding. In short, it runs like this: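 Cy5-labelled Mcl1 171-321 C286S (1 nM) quenched by TQ5WS-labelled PUMA peptide (10, 20 or 400 nM); displacement raises fluorescence (Ex 620/Em 680 nm). Buffer 10 mM HEPES, 150 mM NaCl, 0.05% Tween 20, pH 7.4, 5% DMSO; 2 h at room temperature, 11-point curves, IC50 converted to Ki (cKi/eKi).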

Assay [2] relates to H929 multiple myeloma tumor line. The assay can be described thus: In vitro cytotoxicity, MTT assay (Example B, Method A). The class given is cell-based. Particulars: H929 cells, 48 hours exposure, read-out: C50. Here is the method: The cytotoxicity studies were carried out on the H929 multiple myeloma tumor line.
The cells are distributed onto microplates and exposed to the test compounds for 48 hours. The cell viability is then quantified by a colorimetric assay, the Microculture Tetrazolium Assay (Carmichael et al, Cancer Res. 1987, 47, 939-942).
The results are expressed in C50 which means concentration corresponding to […] of effect/inhibition.
In general terms: Tetrazolium assays rely on reduction of a dye to a coloured formazan, in cell work by metabolically active cells.

Sequence of Cy5-labelled Mcl1 (amino acids 171-321) C286S protein (Q07820 171-321 C286S): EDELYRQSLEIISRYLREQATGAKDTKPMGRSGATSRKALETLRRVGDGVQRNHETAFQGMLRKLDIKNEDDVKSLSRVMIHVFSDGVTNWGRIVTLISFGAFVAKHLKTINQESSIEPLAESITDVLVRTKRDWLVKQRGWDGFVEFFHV

With `C[C@@H](COc1ccnc2ccsc12)C[C@@H]1Cc2ccc(F)cc2[C@]12CC[C@@](Nc1cccc(Cl)c1)(C(=O)O)CC2` [Example 736, (1r,2′R,4R)-4-(3-chloroanilino)-6′-fluoro-2′-{(2R)-2-methyl-3-[(thieno[3,2-b]pyridin-7-yl)oxy]propyl}-2′,3′-dihydrospiro[cyclohexane-1,1′-indene]-4-carboxylic acid], the Ki – broadly, a dissociation constant, usually derived from enzyme kinetics or from competition with a known ligand – in assay [1] was determined as 5.19 nM. Besides, the IC50 in assay [2] (Homo sapiens, NCI-H929, 48 h) was 1220 nM.
For `Cc1cc(C(C)O)cc2c1C=C(C[C@@H](C)COc1ccnc3c1[C@H](C)CCC3)[C@]21CC[C@](Nc2cccc(Cl)c2)(C(=O)O)CC1` (single isomer, unassigned) [Example 760], the Ki in assay [1] turned out to be 0.198 nM. In assay [2], the IC50 was 81.7 nM.
Regarding `C[C@@H]1CCCc2nccc(OCC(CC3Cc4ccccc4[C@]34CC[C@@](Nc3cccc(Cl)c3)(C(=O)O)CC4)C(F)F)c21` (single isomer, unassigned) [Example 520], in assay [1], the Ki was determined as 91.4 nM. In addition, the IC50 in assay [2] amounted to 10400 nM.
Consider `C[C@@H](COc1ccnc2c1[C@H](C)CCC2)C[C@H]1Cc2ccc(C=O)cc2[C@]12CC[C@@](Nc1cccc(Cl)c1)(C(=O)O)CC2` [Example 867, (1r,2′S,4S)-4-(3-chloroanilino)-6′-formyl-2′-[(2R)-2-methyl-3-{[(5R)-5-methyl-5,6,7,8-tetrahydroquinolin-4-yl]oxy}propyl]-2′,3′-dihydrospiro[cyclohexane-1,1′-indene]-4-carboxylic acid], for which, in assay [1], the Ki came out at 0.0988 nM. Besides, the IC50 in assay [2] (Homo sapiens, NCI-H929, 48 h) turned out to be 73 nM.
Regarding `Cc1cccc2c1C=C(C[C@@H](C)COc1ccnc3c1[C@H](C)CCC3)[C@]21CC[C@](Nc2cccc(Cl)c2)(C(=O)O)CC1` [Example 753, (1r,4R)-4-(3-chloroanilino)-4′-methyl-2′-[(2R)-2-methyl-3-{[(5R)-5-methyl-5,6,7,8-tetrahydroquinolin-4-yl]oxy}propyl]spiro[cyclohexane-1,1′-indene]-4-carboxylic acid], the Ki in assay [1] turned out to be 3.22 nM. In addition, the IC50 in assay [2] (Homo sapiens, NCI-H929, 48 h) was found to be 111 nM.
`O=C(O)[C@]1(Nc2cccc(Cl)c2)CC[C@]2(CC1)C(Br)=Cc1ccccc12` [Example 75, (1s,4s)-2′-bromo-4-(3-chloroanilino)spiro[cyclohexane-1,1′-indene]-4-carboxylic acid]: in assay [1] (Ki determined from IC50), the Ki is 119 nM. In assay [2] (Homo sapiens, NCI-H929, 48 h), the IC50 amounted to 30000 nM.
With `CC[C@H]1CCCc2nccc(OC[C@H](C)C[C@H]3Cc4ccccc4[C@]34CC[C@@](Nc3cccc(Cl)c3)(C(=O)O)CC4)c21` [Example 656, (1r,2′S,4S)-4-(3-chloroanilino)-2′-[(2R)-3-{[(5S)-5-ethyl-5,6,7,8-tetrahydroquinolin-4-yl]oxy}-2-methylpropyl]-2′,3′-dihydrospiro[cyclohexane-1,1′-indene]-4-carboxylic acid], the Ki in assay [1] worked out at 62.9 nM. For the same compound, in assay [2] (Homo sapiens, NCI-H929, 48 h), the IC50 amounted to 2910 nM.
In the case of `C[C@@H](COc1ccnc2c1[C@@H](C)CC[C@@H]2F)C[C@H]1Cc2ccccc2[C@]12CC[C@@](Nc1cccc(Cl)c1)(C(=O)O)CC2` [Example 690, (1r,2′S,4S)-4-(3-chloroanilino)-2′-[(2R)-3-{[(5S,8S)-8-fluoro-5-methyl-5,6,7,8-tetrahydroquinolin-4-yl]oxy}-2-methylpropyl]-2′,3′-dihydrospiro[cyclohexane-1,1′-indene]-4-carboxylic acid], the Ki in assay [1] came to 29.5 nM. Moreover, the IC50 in assay [2] (Homo sapiens, NCI-H929, 48 h) came out at 1410 nM.
Regarding `C[C@@H](COc1ccnc2c1[C@H](C)CCC2)CC1Cc2c(Cl)c(F)ccc2[C@]12CC[C@@](Nc1cccc(Cl)c1)(C(=O)O)CC2` (single isomer, unassigned) [Example 747], the Ki in assay [1] stood at 0.788 nM. Further, in assay [2], the IC50 is 118 nM.
For the compound `C[C@@H](COc1ccnc2c1[C@H](C)CC[C@H]2O)C[C@H]1Cc2cc(F)ccc2[C@]12CC[C@@](Nc1cccc(Cl)c1)(C(=O)O)CC2` [Example 771, (1r,2′S,4S)-4-(3-chloroanilino)-5′-fluoro-2′-[(2R)-3-{[(5R,8R)-8-hydroxy-5-methyl-5,6,7,8-tetrahydroquinolin-4-yl]oxy}-2-methylpropyl]-2′,3′-dihydrospiro[cyclohexane-1,1′-indene]-4-carboxylic acid], the Ki in assay [1] was found to be 0.176 nM. In addition, in assay [2] (Homo sapiens, NCI-H929, 48 h), the IC50 came out at 18.3 nM.
Take `C[C@@H](COc1ccnc2c1CCCC2C(F)F)C[C@H]1Cc2ccccc2[C@]12CC[C@@](Nc1cccc(Cl)c1)(C(=O)O)CC2` (single isomer, unassigned) [Example 682]: the Ki in assay [1] came out at 46.6 nM. In assay [2] (Homo sapiens, NCI-H929, 48 h), the IC50 is 5180 nM.
The corresponding values for `CC[C@H]1CC[C@H](O)c2nccc(OC[C@H](C)C[C@H]3Cc4ccccc4[C@]34CC[C@@](Nc3cccc(Cl)c3)(C(=O)O)CC4)c21` [Example 678, (1r,2′S,4S)-4-(3-chloroanilino)-2′-[(2R)-3-{[(5S,8S)-5-ethyl-8-hydroxy-5,6,7,8-tetrahydroquinolin-4-yl]oxy}-2-methylpropyl]-2′,3′-dihydrospiro[cyclohexane-1,1′-indene]-4-carboxylic acid] are 221 nM and 9630 nM.
For the compound `C[C@@H](COc1ccnc2c1C(OC(F)F)CCC2)C[C@H]1Cc2ccccc2[C@]12CC[C@@](Nc1cccc(Cl)c1)(C(=O)O)CC2` (stereo partly drawn) [Example 691, (1r,2′S,4S)-4-(3-chloroanilino)-2′-[(2R)-3-{[5-(difluoromethoxy)-5,6,7,8-tetrahydroquinolin-4-yl]oxy}-2-methylpropyl]-2′,3′-dihydrospiro[cyclohexane-1,1′-indene]-4-carboxylic acid], the Ki in assay [1] was determined as 10.9 nM. Moreover, in assay [2] (Homo sapiens, NCI-H929, 48 h), the IC50 worked out at 806 nM.
Consider `C[C@@H](COc1ncnc2c1[C@H](C)CCC2)C[C@H]1Cc2ccccc2[C@]12CC[C@@](Nc1cccc(Cl)c1)(C(=O)O)CC2` [Example 638, (1r,2′S,4S)-4-(3-chloroanilino)-2′-[(2R)-2-methyl-3-{[(5R)-5-methyl-5,6,7,8-tetrahydroquinazolin-4-yl]oxy}propyl]-2′,3′-dihydrospiro[cyclohexane-1,1′-indene]-4-carboxylic acid], for which the Ki in assay [1] turned out to be 3.76 nM. For the same compound, the IC50 in assay [2] (Homo sapiens, NCI-H929, 48 h) came out at 373 nM.
For the compound `C[C@@H](COc1ccnc2c1[C@H](C)CCC2)C[C@@H]1Cc2ccc(COC3CCCO3)cc2[C@]12CC[C@@](Nc1cccc(Cl)c1)(C(=O)O)CC2` (stereo partly drawn) [Example 871, (1r,2′R,4R)-4-(3-chloroanilino)-2′-[(2R)-2-methyl-3-{[(5R)-5-methyl-5,6,7,8-tetrahydroquinolin-4-yl]oxy}propyl]-6′-{[(oxolan-2-yl)oxy]methyl}-2′,3′-dihydrospiro[cyclohexane-1,1′-indene]-4-carboxylic acid], in assay [1], the Ki is 0.737 nM. The IC50 in assay [2] (Homo sapiens, NCI-H929, 48 h) is 114 nM.
As for `C[C@@H](COc1ccnc2c1[C@@H](C)CC[C@H]2O)C[C@H]1Cc2ccccc2[C@]12CC[C@@](Nc1cccc(Cl)c1)(C(=O)O)CC2` [Example 674, (1r,2′S,4S)-4-(3-chloroanilino)-2′-[(2R)-3-{[(5S,8R)-8-hydroxy-5-methyl-5,6,7,8-tetrahydroquinolin-4-yl]oxy}-2-methylpropyl]-2′,3′-dihydrospiro[cyclohexane-1,1′-indene]-4-carboxylic acid], in assay [1], the Ki was found to be 6.95 nM. The IC50 in assay [2] (Homo sapiens, NCI-H929, 48 h) stood at 1710 nM.
Take `C[C@@H](COc1ncnc2c1[C@H](C)CC2)CC1Cc2ccccc2[C@]12CC[C@@](Nc1cccc(Cl)c1)(C(=O)O)CC2` (stereo partly drawn) [Example 597, (1r,4R)-4-(3-chloroanilino)-2′-[(2R)-2-methyl-3-{[(5R)-5-methyl-6,7-dihydro-5H-cyclopenta[d]pyrimidin-4-yl]oxy}propyl]-2′,3′-dihydrospiro[cyclohexane-1,1′-indene]-4-carboxylic acid]: the Ki in assay [1] amounted to 5.36 nM. In assay [2] (Homo sapiens, NCI-H929, 48 h), the IC50 came out at 1310 nM.
Consider `C[C@@H]1CCCc2nccc(OCC(CF)CC3=Cc4ccccc4[C@]34CC[C@@](Nc3cccc(Cl)c3)(C(=O)O)CC4)c21` (single isomer, unassigned) [Example 514], for which the Ki in assay [1] worked out at 1.84 nM. In assay [2], the IC50 is 320 nM.
Consider `O=C(O)[C@]1(Nc2cccc(Cl)c2)CC[C@@]2(CC1)c1ccccc1CN2CCCOc1ccnc2ccsc12` [Example 36, (1s,4s)-4-(3-chloroanilino)-2′-{3-[(thieno[3,2-b]pyridin-7-yl)oxy]propyl}-2′,3′-dihydrospiro[cyclohexane-1,1′-isoindole]-4-carboxylic acid], for which the Ki in assay [1] (Ki determined from IC50) is 749 nM. For the same compound, in assay [2] (Homo sapiens, NCI-H929, 48 h), the IC50 is 18500 nM.
As for `CC1CCN(C)c2nccc(OC[C@H](C)C[C@H]3Cc4ccccc4[C@]34CC[C@@](Nc3cccc(Cl)c3)(C(=O)O)CC4)c21` (single isomer, unassigned) [Example 643], the Ki in assay [1] was determined as 26.8 nM. In addition, the IC50 in assay [2] (Homo sapiens, NCI-H929, 48 h) is 1230 nM.
In the case of `C[C@@H](COc1ccnc2c(Cl)cn(C)c12)C[C@H]1Cc2ccccc2[C@]12CC[C@@](Nc1cccc(Cl)c1)(C(=O)O)CC2` [Example 631, (1r,2′S,4S)-4-(3-chloroanilino)-2′-{(2R)-3-[(3-chloro-1-methyl-1H-pyrrolo[3,2-b]pyridin-7-yl)oxy]-2-methylpropyl}-2′,3′-dihydrospiro[cyclohexane-1,1′-indene]-4-carboxylic acid], in assay [1], the Ki was determined as 12.6 nM. Moreover, the IC50 in assay [2] (Homo sapiens, NCI-H929, 48 h) is 3170 nM.
With `C[C@@H](COc1ccnc2c1CCC2O)C[C@H]1Cc2ccccc2[C@]12CC[C@@](Nc1cccc(Cl)c1)(C(=O)O)CC2` (single isomer, unassigned) [Example 609], the Ki in assay [1] worked out at 2.61 nM. Further, the IC50 in assay [2] turned out to be 629 nM.
